One data set concerns the target T1, CYP450 2C9 (Homo sapiens, UniProt P11712).
T1 construct: from tissue; host or cells: human liver microsomes
The data set can be described thus: Inhibition of human liver microsome CYP450 enzyme 2C9. The class given is in vitro ADME. The procedure: (§1) 100 mM K-Buffer: 9.5 mL of stock solution A was mixed with 40.5 mL of stock solution B, the total volume was adjusted to 500 mL with ultrapure water, and the buffer was titrated to pH 7.4 with KOH or H3PO4. • Starting material A (1 M potassium dihydrogen phosphate): 136.5 g of potassium dihydrogen phosphate in 1 L of water; • Stock solution B ([…]): 174.2 g of potassium dihydrogen phosphate in 1 L of water.
(§2) The test substance powder was prepared into a stock solution at a certain concentration with DMSO or another organic solvent, which was then further diluted with a suitable organic solvent.
(§3) The liver microsomal in vitro incubation system for the CYP450 enzyme metabolism phenotype study was a biochemical reaction of the prepared liver microsomes supplemented with a redox coenzyme and an enzyme-specific selective inhibitor under simulated physiological temperature and physiological environment conditions.
(§4) The concentration of the parent drug or a metabolite thereof in the incubation solution was determined by LC-MS/MS. and the IC50 value was calculated.
Background: Liver microsomes are a subcellular fraction often used to study metabolism.

A further data set has as its system NCI-H838 cells. The data set can be described thus: Pharmacodynamic study, NCI-H838 subcutaneous xenograft. The class given is in vivo, mouse. As for the experimental part: (§5) Human non-small cell lung cancer NCI-H838 cells were cultured in monolayer in vitro using the McCoy 5A culture medium (HyClone) containing 10% fetal bovine serum (BI) and 1% penicillin and streptomycin (Beyotime) in an incubator at 37 °C with 5% CO2. The cells were digested with trypsin 2 to 3 times weekly for passaging. When the saturation degree of the cells was 80% to 90%, the cells were collected, counted, and inoculated. 5 × 10^6 (0.1 mL) NCI-H838 cells were subcutaneously inoculated on the right back of each mouse. On about day 29 after inoculation of the cells, the mean tumor volume reached 156 mm^3. The mice were randomly grouped for administration (the animals were divided into an administration group and a control group, with 6 animals in each group). The day of grouping was designated as d0, and intragastric administration was started on d1. The administration was performed once daily at an administration volume of 10 mL/kg. Vehicle control was administered to the control group. The tumor volume was measured 2 to 3 times weekly, and meanwhile, the mice were weighed and the data were recorded; daily observations were made to record the body surface signs of the mice. After the experiment was completed, the tumors were collected, weighed, and photographed for recording.
(§6) Calculation formula for tumor volume: Tumor volume (mm^3) = 1/2 × (a×b^2) [formula] (note: a represents long diameter and b represents short diameter) [formula]

In the next data set the target is T2, CYP450 2C19 (Homo sapiens, UniProt P33261).
T2 construct: from tissue; host or cells: human liver microsomes
The data set can be described thus: Inhibition of human liver microsome CYP450 enzyme 2C19. The class given is in vitro ADME. As for the experimental part: as §1, §2, §3, §4

In the next data set the target is PRMT5 (Homo sapiens, UniProt O14744). The data set can be described thus: Inhibitory activity against enzymatic activity of PRMT5 (fluorescence polarization). The class given is biochemical. Conditions: PRMT5 25 nM, SAM 1 µM, polypeptide 1 µM, MTA 2 µM; 37 °C 2 hours. The procedure:
The compounds were prepared into 10 mM stock solutions using DMSO, and then 9 concentration gradients (with an initial concentration of 10 µM followed by 1:5 dilution) were prepared using a buffer (50 mM Tris-HCl pH 8.5, 5 mM MgCl2, 4 mM DTT, 0.01% Triton X-100, 0.1 M NaCl, 0.5% DMSO), and each well received 5 µL of the diluted compound solutions. SAM, a polypeptide, and MTA were prepared using a buffer to final concentrations of 1 µM, 1 µM, and 2 µM, respectively, and were added to each well in a total of 5 µL. Meanwhile, an MTA-free group was set as a control. […] Subsequently, a mixture of 2.5 µL of stop buffer A, 2.5 µL of an 8× MT assay mixture (final concentration: 1×), and 24 µg/mL AMP2/GMP2 antibodies (final concentration: 3 µg/mL) was added. The resulting mixture was incubated at room temperature for 1.5 hours, and fluorescence polarization (FP) was measured (Ex 633, Em 647). Meanwhile, negative control wells without protein (Blank) and positive control wells without compound (DMSO) were set. Each experiment was independently repeated three times.
Data processing: The numerical values of each group were recorded for statistical analysis, and the inhibition rate was calculated according to the following formula: inhibition percentage of compound wells (% inh) = [1 - (ave Blank - Cpd well)/(ave Blank - ave DMSO control)] × 100. Note: ave represents the average value, and Cpd represents the numerical value of the wells containing the compound. A sigmoidal dose-inhibition rate curve was plotted and fitted using a nonlinear regression model in the GraphPad Prism 7.0 software, and the IC50 value was calculated. Table 1. Inhibitory activity of compounds against enzymatic activity of PRMT5

The subject of a further data set is HCT-116-MTAP^-/- cells. The data set can be described thus: Pharmacodynamic study, HCT-116-MTAP^-/- subcutaneous xenograft. The class given is in vivo, mouse. Conditions: HCT-116-MTAP^-/- xenograft. As for the experimental part:
as §5, with “Human colon” for “Human non-small cell lung”, “cancer HCT-116-MTAP^-1-” for “cancer NCI-H838”, “mL) HCT-116-MTAP^-/-” for “mL) NCI-H838”, “day 15” for “day 29”, “reached 172” for “reached 156”
as §6

Another data set deals with T3, CYP450 3A4 (Homo sapiens, UniProt P08684).
T3 construct: from tissue; host or cells: human liver microsomes
The data set can be described thus: Inhibition of human liver microsome CYP450 enzyme 3A4. The class given is in vitro ADME. As for the experimental part: as §1, §2, §3, §4

The target in a further data set is T4, CYP450 2D6 (Homo sapiens, UniProt P10635).
T4 construct: from tissue; host or cells: human liver microsomes
The data set can be described thus: Inhibition of human liver microsome CYP450 enzyme 2D6. The class given is in vitro ADME. The procedure:
as §1, §2, §3, §4

These results are taken from patent EP4700025A1, “AMIDE COMPOUND, PHARMACEUTICAL COMPOSITION COMPRISING SAME, AND USE THEREOF” (Suzhou Genhouse Bio Co., Ltd., priority 2023, dated 2024).

Where two headings read alike, the source gives them in different places.

T3 sequence (P08684 whole entry): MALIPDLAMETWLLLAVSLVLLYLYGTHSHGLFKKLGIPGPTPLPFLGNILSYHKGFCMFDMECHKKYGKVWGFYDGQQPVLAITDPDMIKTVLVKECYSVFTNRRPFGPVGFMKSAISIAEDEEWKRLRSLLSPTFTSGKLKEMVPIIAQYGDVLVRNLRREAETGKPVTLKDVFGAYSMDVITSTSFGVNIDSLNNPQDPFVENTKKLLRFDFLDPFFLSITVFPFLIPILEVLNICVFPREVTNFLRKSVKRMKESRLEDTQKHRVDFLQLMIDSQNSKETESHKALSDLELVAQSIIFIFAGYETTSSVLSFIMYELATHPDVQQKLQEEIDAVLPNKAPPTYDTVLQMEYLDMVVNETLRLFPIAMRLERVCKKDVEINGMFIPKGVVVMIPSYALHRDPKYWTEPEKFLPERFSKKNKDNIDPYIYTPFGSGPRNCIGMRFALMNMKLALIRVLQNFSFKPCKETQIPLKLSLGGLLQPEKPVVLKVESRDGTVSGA
T1 sequence (P11712 whole entry): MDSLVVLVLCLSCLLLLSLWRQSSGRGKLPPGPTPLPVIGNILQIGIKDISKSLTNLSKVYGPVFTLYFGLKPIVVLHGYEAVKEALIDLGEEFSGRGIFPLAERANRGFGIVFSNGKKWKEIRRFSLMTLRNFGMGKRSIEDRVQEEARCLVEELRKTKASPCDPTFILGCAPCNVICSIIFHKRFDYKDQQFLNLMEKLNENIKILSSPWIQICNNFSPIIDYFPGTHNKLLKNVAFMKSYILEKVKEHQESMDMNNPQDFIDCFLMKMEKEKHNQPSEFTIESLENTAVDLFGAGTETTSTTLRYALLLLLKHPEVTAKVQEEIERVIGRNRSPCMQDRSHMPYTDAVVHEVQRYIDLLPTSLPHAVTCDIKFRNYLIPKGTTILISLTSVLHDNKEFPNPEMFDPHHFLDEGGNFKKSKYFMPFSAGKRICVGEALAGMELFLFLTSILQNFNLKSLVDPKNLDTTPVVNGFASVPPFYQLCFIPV
Sequence of PRMT5 (O14744 whole entry): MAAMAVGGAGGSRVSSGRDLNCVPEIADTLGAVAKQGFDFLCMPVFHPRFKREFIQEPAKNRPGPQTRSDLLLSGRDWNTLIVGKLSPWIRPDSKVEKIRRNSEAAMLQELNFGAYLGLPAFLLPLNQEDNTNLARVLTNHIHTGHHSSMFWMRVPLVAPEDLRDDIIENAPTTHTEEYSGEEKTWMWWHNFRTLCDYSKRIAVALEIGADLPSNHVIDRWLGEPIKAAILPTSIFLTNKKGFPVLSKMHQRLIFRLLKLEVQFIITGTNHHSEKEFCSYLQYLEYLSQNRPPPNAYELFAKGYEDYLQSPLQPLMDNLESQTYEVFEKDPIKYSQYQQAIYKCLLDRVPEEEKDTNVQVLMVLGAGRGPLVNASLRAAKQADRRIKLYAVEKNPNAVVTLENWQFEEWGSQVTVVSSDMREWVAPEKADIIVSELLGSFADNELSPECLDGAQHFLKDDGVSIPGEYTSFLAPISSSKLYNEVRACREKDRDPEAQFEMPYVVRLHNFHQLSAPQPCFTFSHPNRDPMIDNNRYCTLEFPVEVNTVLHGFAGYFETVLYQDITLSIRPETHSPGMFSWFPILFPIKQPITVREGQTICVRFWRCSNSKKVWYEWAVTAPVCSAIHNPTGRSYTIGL
Sequence of PRMT5 (Q9BQA1 whole entry partner): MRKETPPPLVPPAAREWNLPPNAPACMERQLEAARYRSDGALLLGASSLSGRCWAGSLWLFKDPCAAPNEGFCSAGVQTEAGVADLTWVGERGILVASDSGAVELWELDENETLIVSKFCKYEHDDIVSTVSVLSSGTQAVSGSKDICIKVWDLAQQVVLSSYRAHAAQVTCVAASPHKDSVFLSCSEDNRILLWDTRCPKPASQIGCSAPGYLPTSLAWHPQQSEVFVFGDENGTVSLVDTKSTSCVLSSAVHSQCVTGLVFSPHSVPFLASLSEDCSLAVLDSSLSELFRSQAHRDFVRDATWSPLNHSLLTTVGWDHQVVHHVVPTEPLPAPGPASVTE
T4 sequence (P10635 whole entry): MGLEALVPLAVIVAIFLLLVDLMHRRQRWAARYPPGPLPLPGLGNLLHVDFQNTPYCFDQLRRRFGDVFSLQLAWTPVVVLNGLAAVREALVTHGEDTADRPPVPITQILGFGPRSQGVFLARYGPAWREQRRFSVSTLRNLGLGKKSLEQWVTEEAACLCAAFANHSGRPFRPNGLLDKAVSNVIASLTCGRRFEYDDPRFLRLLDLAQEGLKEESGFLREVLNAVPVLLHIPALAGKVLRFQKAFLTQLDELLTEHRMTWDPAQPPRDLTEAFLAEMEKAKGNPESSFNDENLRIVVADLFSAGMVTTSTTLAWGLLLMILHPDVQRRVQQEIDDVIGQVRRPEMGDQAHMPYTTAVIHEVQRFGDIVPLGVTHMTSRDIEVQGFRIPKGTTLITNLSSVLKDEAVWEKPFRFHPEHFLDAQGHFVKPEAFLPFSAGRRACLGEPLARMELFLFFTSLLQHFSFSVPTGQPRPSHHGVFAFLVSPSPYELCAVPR
T2 sequence (P33261 whole entry): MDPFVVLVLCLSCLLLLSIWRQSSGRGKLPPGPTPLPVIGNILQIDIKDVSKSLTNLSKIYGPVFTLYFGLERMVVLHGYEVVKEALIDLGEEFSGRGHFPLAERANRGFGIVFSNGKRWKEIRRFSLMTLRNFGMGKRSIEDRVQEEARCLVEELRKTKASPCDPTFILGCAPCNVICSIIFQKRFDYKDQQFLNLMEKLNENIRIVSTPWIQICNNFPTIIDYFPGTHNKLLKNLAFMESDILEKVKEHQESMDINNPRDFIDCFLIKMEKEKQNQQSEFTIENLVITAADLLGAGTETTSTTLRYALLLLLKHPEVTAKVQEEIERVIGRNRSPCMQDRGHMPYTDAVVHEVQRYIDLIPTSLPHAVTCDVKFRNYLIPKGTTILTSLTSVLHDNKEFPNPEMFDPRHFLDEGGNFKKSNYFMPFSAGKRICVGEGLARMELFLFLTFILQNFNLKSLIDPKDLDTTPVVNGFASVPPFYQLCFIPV

For `Cn1ncc2c(N)nc3cc(F)c(C(=O)N(Cc4ccc5c(c4)OC(F)(F)O5)C4CC4)cc3c21` [Example I-16], the IC50 is over 10 µM at CYP450 2C9 (human liver microsomes, 2C9, read-out: IC50); over 10 µM on CYP450 2C19 (human liver microsomes, 2C19, read-out: IC50); 0.0346 µM on PRMT5; over 10 µM on CYP450 3A4 (human liver microsomes, 3A4, read-out: IC50); over 10 µM at CYP450 2D6 (human liver microsomes, 2D6, read-out: IC50). The “Day 31 TGI” value in the data set on NCI-H838 cells (10 mpk PO QD) was found to be 97%. Moreover, the “Day 28 TGI” value in the data set with HCT-116-MTAP^-/- cells (10 mpk PO QD) is 75%; with HCT-116-MTAP^-/- cells (30 mpk PO QD) it was 92%.
With `Cn1ncc2c(N)nc3cnc(C(=O)N4CCOC[C@@H]4c4ccc5c(c4)OC(F)(F)O5)cc3c21` [Example I-38], the “Day 31 TGI” value with NCI-H838 cells (10 mpk PO QD) was found to be 75%; with NCI-H838 cells (30 mpk PO QD), 105%; in the data set with NCI-H838 cells (100 mpk PO QD), 107%. In addition, the IC50 at CYP450 3A4 (human, microsomes, pH 7.4) is over 10 µM.
`Cn1ncc2c(N)nc3cc(F)c(C(=O)N4CCOC[C@@H]4c4ccc5c(c4)OC(F)(F)O5)cc3c21` [Example I-7]: the IC50 on CYP450 2C9 (human, microsomes, pH 7.4) is over 10 µM; at CYP450 2C19 (human, microsomes, pH 7.4), over 10 µM; against PRMT5 it was 0.0284 µM; against CYP450 3A4 (human, microsomes, pH 7.4), over 10 µM; against CYP450 2D6 (human, microsomes, pH 7.4), over 10 µM. Further, the “Day 28 TGI” value amounted to 84% with HCT-116-MTAP^-/- cells (10 mpk PO QD) and 91% with HCT-116-MTAP^-/- cells (30 mpk PO QD).

A word on the IC50: it is the concentration that inhibits the measured activity by half.
